# Experimental data as given in patent US5393786A, “Method for treating inflammation, ischemia-induced cell damage and muscular dystrophy” (priority 1993, dated 1995).
# Like-named read-outs stand apart in the source and are kept apart here.
# How the values were obtained:
# [1] = tested on: dystrophic mice (dy/dy); assay: Muscular Dystrophy Animal Model, life span of dystrophic mice; type: in vivo; settings: 0.03 wgt % of compound in diet; control 73 days
# Description: Dystrophic mice (dy/dy) were obtained from Jackson Laboratories after weaning (approximately 21 days) and treatment with the compound shown in Table IV was begun at the first sign of dystrophy. The compound was administered in the diet and lifespan was measured during the course of treatment. The food and water sources were located in different parts of the cage requiring the animals to walk from the food source to the water source to survive.
# [2] = tested on: hippocampal CA1 pyramidal cell layer; assay: Stroke model in rats (four-vessel occlusion), hippocampal CA1 damage
# Description: (§1) Strokes were produced in rats by occluding the four arteries that supply blood to the brain according to the following procedure. Male Wistar rats (250-280 g; Hilltop Laboratories, Scottsdale, Pa.) were anesthetized with metofane and placed into a stereotaxic instrument. A longitudinal incisio was made on the dorsal surface of the neck. The neck muscles were reflected to expose the dorsal surface of the spinal column. The two vertebral arteries were exposed where they pass through the first cervica vertebra. Both arteries were permanently occluded by the application of electrocautery. After coagulation of the vertebral arteries, the rat was removed from the stereotaxic instrument and the surgical wound was sutured. Two longitudinal incisions were then made on the ventral surface of the neck. The two common carotid arteries were exposed and dissected free from surrounding nerves and connective tissue. Reversible atraumatic clamps, fabricated mainly from silicon rubber tubing, were placed around each carotid artery in a manner such that the vessels were not traumatize or occluded. The clamps were externalized through the ventral neck incision. A suture was also placed through the neck dorsal to the carotids, esophagus and trachea, and tied loosely behind the neck. This suture is tied tightly at the time ischemia is induced in order to restrict collateral circulation reaching the brain through the dorsal muscles of the neck. The surgical wounds were then closed. After the surgery, the rats were allowed to recover for 24 hours (free access to water, but no food during this period).
# (§2) On the day of testing, test compounds were administered at various times before stroke induction. Strokes (cerebral ischemia) were induced by tightening the clamps around the carotids, thereby stopping blood flow in the carotids. Rats in which strokes were successfully produced lost the righting reflex and became unresponsive to stimuli. Collateral circulatio through the dorsal neck muscles was then restricted by tightening the previously implanted suture. […] After 30 minutes of ischemia, the carotid clamps wer released, the neck suture was loosened, and blood flow to the brain was restored. Following the period of ischemia, the rats were allowed free access to food and water. Rats were again treated with test compounds at various times after the stroke. On the third day after the stroke the animals were sacrificed and their brains were removed, frozen and sectioned through the striatum and hippocampus. Sections were mounted on glass slides and stained with hematoxylin and eosin.
# (§3) Two of the areas of the brain that are most susceptible to ischemia induce damage, both in rats and humans, are the CA1 pyramidal cell layer of the hippocampus and the striatal cell layer of the striatum. In animals that remain unresponsive for the 30 minute period of ischemia, the CA1 pyramidal cell layer and the striatal cell layer are completely destroyed. These layers of cells were examined microscopically in histological sections prepared from the hippocampus and striatum. Brain damage was rated according to the following scale:
# (§4) 0=no damage, completely intact cell layer
# (§5) 1=mild damage, onethird of cell layer dead
# (§6) 2=moderate damage, twothirds of cell layer dead
# (§7) 3=severe damage, complete destruction of cell layer
# (§8) Damage in 10-12 sections from each brain was assessed in order to obtain a accurate estimate of damage. An average damage score was calculated for each treatment group. Scores from treated groups were compared statistically with scores from control groups which received only the vehicle used to suspend the compounds. The level of significance was determined using the Mann WhitneyU-test.
# [3] = tested on: striatal cell layer of the striatum; assay: Stroke model in rats (four-vessel occlusion), striatal damage; type: in vivo, male Wistar rats
# Description: as §1, §2, §3, §4, §5, §6, §7, §8
# [4] = tested on: adjuvant-induced arthritis (uninjected hind paw); assay: Developing Adjuvant-Induced Arthritis Test in Rats; type: in vivo, male Lewis-Wistar rats; settings: po, 720 h, AUC days 16-30
# [5] = tested on: ischemia-induced cell damage caused by middle cerebral artery occlusion; assay: Middle Cerebral Artery Occlusion Stroke Model; type: in vivo, male spontaneously hypertensive rats; settings: saline
# Description: Strokes were also produced in rats by occluding the middle cerebral artery according to the following procedure. Male spontaneously hypertensive rats were housed in groups of three to four per cage and allowed free access to food and water. The animals were anesthetized with a mixture of 2.5% halothane and air. The anesthetized rats then underwent the following surgical procedure.
# A femoral artery of each rat was cannulated to monitor mean arterial pressure and a jugular cannula was inserted in order to provide a means for administering test compounds intravenously. […] The ventral neck area and the area behind each animal's right eye were shaved and washed with antiseptic solution. The right common carotid artery was dissected free of connective tissue through a midline cervical incision and the vessel permanently occluded with a silk ligature. Next, a 1 cm incision perpendicular to, and bisecting a line between the lateral canthus of the right eye and the external auditory canal, was made to expose the temporalis muscle which was retracted and partially excised. Using a dissecting microscope, the right middle cerebral artery was exposed through a 2 mm burr hole drilled 2-3 mm rostral to the fusion of the zygomatic arch with a squamosal bone. Drilling was done under a continuous drip of a 0.9% saline solution to prevent heat injury of the underlying cortex. The dura was cut and retracted to expose the middle cerebral artery.
# This artery was occluded in two ways. The first method of occlusion involved permanent cauterization of the artery so that blood flow through the artery was completely eliminated. The second method of occulsion was only temporary (lasting two hours) and involved clamping the artery with microaneurism clips. Test compounds were administered at various times before, during and after occlusion. Each animal's body temperature was maintained at 37° C. during testing using a rectal thermometer connected to a heating pad.
# Twenty-four hours after tandem middle cerbral carotid artery occlusion, the test animals were sacrificed and their brains removed and frozen over dry ice. Coronal sections 20 microns thick were cut at half millimeter intervals in a cryostat at -20° C. and dried on a hot plate at 60° C. The sections were then stained with cresyl violet. […] A total infarct volume was then calculated using a computer program that summed all sectional areas measured multiplied by the interval thickness. The lower the infarcted volume obtained, the lower the amount of cell damage caused by the stroke. The level of significance was obtained using Student's "t-test".
# [6] = Chemical Abstracts, 78, 132326f (1973); cited from earlier work
# [7] = Chemical Abstracts, 74, 96312e (1971); cited from earlier work
# [8] = 50 mg/kg rat weight × 29, p.o. once daily, read-out: % Inhibition of Uninjected Paw Volume Inflammation, Days 16-30
smiles,measurement,setting,value
"CN(C)Cc1cc(C(C)(C)C)c(O)c(C(C)(C)C)c1 [4-[(dimethylamino)methyl]-2,6-bis(1,1-dimethylethyl)phenol]",Average Life Span,[1],120 days
same,"Damage Score, Hippocampus","[2]; scale 0-3, mean ± SE, 100 mg/kg orally, 2% acacia, time b (2 h pre, 24 h postischemia), control 2.8 ± 0.2",0.8 ± 0.4
same,"Damage Score, Striatum","[3]; scale 0-3, mean ± SE, 100 mg/kg orally, 2% acacia, time b (2 h pre, 24 h postischemia), control 2.5 ± 0.5",0.8 ± 0.3
same,inhibition in vivo at 50 mg/kg,[4]; [8],59.7%
"CCNCc1cc(C(C)(C)C)c(O)c(C(C)(C)C)c1.Cl [4-[(ethylamino)methyl]-2,6-bis(1,1-dimethylethyl)phenol hydrochloride]","Damage Score, Hippocampus","[2]; scale 0-3, mean ± SE, 20 mg/kg / 5 mg/kg per hour i.v., 10% DMSO/TWEEN 80/NaCl, time d (immediately after ischemia, then continuous 24 h), control 2.83 ± 0.12",1.23 ± 0.47
same,"Damage Score, Striatum","[3]; scale 0-3, mean ± SE, 20 mg/kg / 5 mg/kg per hour i.v., 10% DMSO/TWEEN 80/NaCl, time d (immediately after ischemia, then continuous 24 h), control 2.37 ± 0.28",1.20 ± 0.42
same,inhibition in vivo at 5 mg/kg,"[4]; 5 mg/kg rat weight × 29, p.o. once daily, read-out: % Inhibition of Uninjected Paw Volume Inflammation, Days 16-30",27.9%
same,inhibition in vivo at 10 mg/kg,"[4]; 10 mg/kg rat weight × 29, p.o. once daily, read-out: % Inhibition of Uninjected Paw Volume Inflammation, Days 16-30",19.6%
same,inhibition in vivo at 20 mg/kg,"[4]; 20 mg/kg rat weight × 29, p.o. once daily, read-out: % Inhibition of Uninjected Paw Volume Inflammation, Days 16-30",50.8%
same,inhibition in vivo at 25 mg/kg,"[4]; 25 mg/kg rat weight × 29, p.o. once daily, read-out: % Inhibition of Uninjected Paw Volume Inflammation, Days 16-30",96.5%
same,Infarct Volume,"[5]; permanent occlusion, 20/5 mg/kg i.v. (per hour), time c, control 172 ± 19",122 ± 12 (mm)^3
same,Infarct Volume,"[5]; temporary occlusion, 10/5 mg/kg i.v., time f (one hour after clamping, then upon clamp removal for 24 h), control 128 ± 17",74 ± 8 (mm)^3
"CNCc1cc(C(C)(C)C)c(O)c(C(C)(C)C)c1 [N-methyl-3,5-di-t-butyl-4-hydroxybenzylamine]",rate of blood deoxygenation,[6],increase the rate of blood deoxygenation
"CN(C)Cc1cc(C(C)(C)C)c(O)c(C(C)(C)C)c1.Cl [4-[(dimethylamino)methyl]-2,6-bis(1,1-dimethylethyl)phenol hydrochloride]","Damage Score, Hippocampus","[2]; scale 0 (no damage)-3 (severe), mean ± SE, 50 mg/kg orally, 2% acacia, time a (15 min pre, 4 h and 24 h postischemia), control 2.7 ± 0.2",1.7 ± 0.3
same,"Damage Score, Striatum","[3]; scale 0 (no damage)-3 (severe), mean ± SE, 50 mg/kg orally, 2% acacia, time a (15 min pre, 4 h and 24 h postischemia), control 2.6 ± 0.2",1.1 ± 0.2
same,inhibition in vivo at 50 mg/kg,"[4]; Rattus norvegicus, read-out: % Inhibition of Uninjected Paw Volume Inflammation, Days 16-30, 50 mg/kg rat weight × 29, p.o. once daily",94.8%
same,Infarct Volume,"[5]; permanent occlusion, 50/10 mg/kg i.v. (per hour), time c (15 min before occlusion, then 24 h), control 136 ± 7",91 ± 12 (mm)^3
same,Infarct Volume,"[5]; temporary occlusion, 50/50/10 mg/kg i.p./i.p./i.v. (per hour), time a (15 min before clamping, 15 min before clamp removal, then 24 h), control 114.4 ± 14.1",47.9 ± 3.4 (mm)^3
same,Infarct Volume,"[5]; temporary occlusion, 50/50/10 mg/kg i.p./i.p./i.v. (per hour), time b (15 min after clamping, 15 min before clamp removal, then 24 h), control 101.7 ± 9.1",35.5 ± 5.3 (mm)^3
same,Infarct Volume,"[5]; temporary occlusion, 50/50/10 mg/kg i.p./i.p./i.v. (per hour), time b, rats fasted overnight, control 61.9 ± 7.9",23.1 ± 4.9 (mm)^3
"CNCc1cc(C(C)(C)C)c(O)c(C(C)(C)C)c1.Cl [4-[(methylamino)methyl]-2,6-bis(1,1-dimethylethyl)phenol hydrochloride]","Damage Score, Hippocampus","[2]; scale 0-3, mean ± SE, 10 mg/kg / 10 mg/kg per hour i.v., saline, time d (immediately after ischemia, then continuous 24 h), control 2.4 ± 0.3",0.75 ± 0.3
same,"Damage Score, Hippocampus","[2]; scale 0-3, mean ± SE, 50 mg/kg / 10 mg/kg per hour i.v., saline, time d (immediately after ischemia, then continuous 24 h), control 2.6 ± 0.3",0.66 ± 0.3
same,"Damage Score, Striatum","[3]; scale 0-3, mean ± SE, 10 mg/kg / 10 mg/kg per hour i.v., saline, time d (immediately after ischemia, then continuous 24 h), control 2.6 ± 0.3",1.97 ± 0.4
same,"Damage Score, Striatum","[3]; scale 0-3, mean ± SE, 50 mg/kg / 10 mg/kg per hour i.v., saline, time d (immediately after ischemia, then continuous 24 h), control 2.3 ± 0.4",1.13 ± 0.4
same,inhibition in vivo at 50 mg/kg,[4]; [8],119%
same,antioxidative activity of liver lipids,[7],increases the antioxidative activity of liver lipids
same,liver tissue regeneration following a partial hepatectomy,[7],increasing liver tissue regeneration following a partial hepatectomy
same,Infarct Volume,"[5]; permanent occlusion, 50 mg/kg i.v. single dose, time e (10 min before occlusion), control 140 ± 23",123 ± 18 (mm)^3
same,Infarct Volume,"[5]; permanent occlusion, 10/10 mg/kg i.v. (per hour), time c, control 145 ± 12",128 ± 11 (mm)^3
same,Infarct Volume,"[5]; permanent occlusion, 20/5 mg/kg i.v. (per hour), time c, control 133 ± 16",112 ± 7 (mm)^3
same,Infarct Volume,"[5]; permanent occlusion, 20/10 mg/kg i.v. (per hour), time c, control 148 ± 9",90 ± 18 (mm)^3
same,Infarct Volume,"[5]; permanent occlusion, 50/10 mg/kg i.v. (per hour), time c, control 142 ± 7",76 ± 12 (mm)^3
